From US7109185B2, “Pharmaceutical formulations comprising indolinone derivatives” (Sugen, Inc., priority 2001, dated 2006)
Each block holds one molecule with its values, some of them ahead of it.

How the values were obtained:
[1] = test system: vascular endothelial growth factor receptor (Flk-1/KDR); settings: Fong et al. (1999) Cancer Res. 59:99–106; cited from earlier work
[2] = Plasma Stability Test: conversion of prodrug to drug after IV administration to dogs, HPLC analysis of blood plasma; format: in vivo; settings: IV at 2 mg/mL, blood plasma followed for 4 hours
Method: The prodrug (3Z)-3-[(3,5-dimethyl-1H-pyrrol-2-yl)-methylidene]-1-(1-pyrrolidinylmethyl)-1,3-dihydro-2H-indol-2-one was administered IV at 2 mg/mL to dogs. Levels of both prodrug and drug (3(Z)-3-[(3,5-dimethyl-1H-pyrrol-2-yl)-methylidene]-1,3-dihydro-2H-indol-2-one) were followed by HPLC analysis of blood plasma for 4 hours following dosing.

[3] = Hydrolysis (pH stability profile) at pH 7.2 and 7.6; format: physicochemical; settings: for half-life: buffer, read-out: Half life, t1/2 (hydrolysis)
From the text: (3Z)-3-[(3,5-Dimethyl-1H-pyrrol-2-yl)-methylidene]-1-(1-pyrrolidinylmethyl)-1,3-dihydro-2H-indol-2-one is a Mannich base and is designed to hydrolyse to 3-(3,5-dimethyl-1H-pyrrol-2-ylmethylene)-1,3-dihydro-indol-2-one at physiological pH. The stability of (3Z)-3-[(3,5-dimethyl-1H-pyrrol-2-yl)-methylidene]-1-(1-pyrrolidinylmethyl)-1,3-dihydro-2H-indol-2-one is higher at a lower pH. […] The pH stability profile of (3Z)-3-[(3,5-dimethyl-1H-pyrrol-2-yl)-methylidene]-1-(1-pyrrolidinylmethyl)-1,3-dihydro-2H-indol-2-one at pH 7.2 and pH 7.6 is tabulated in table 1.

SMILES: Cc1cc(C)c(C=C2C(=O)Nc3ccccc32)[nH]1 [3-(3,5-dimethyl-1H-pyrrol-2-ylmethylene)-1,3-dihydro-indol-2-one]
inhibition of the vascular endothelial growth factor receptor (Flk-1/KDR) [1]: highly active selective inhibitor

melting point: 200 to 202 °C
SMILES: Cc1cc(C)c(/C=C2\C(=O)N(CO)c3ccccc32)[nH]1 [Example 1, (3Z)-3-[(3,5-dimethyl-1H-pyrrol-2-yl)-methylidene]-1-(hydroxymethyl)-1,3-dihydro-2H-indol-2-one]

melting point: 160 to 162 °C
SMILES: Cc1cc(C)c(/C=C2\C(=O)N(COC(=O)CCC(=O)O)c3ccccc32)[nH]1 [Example 3, 4-({(3Z)-3-[(3,5-dimethyl-1H-pyrrol-2-yl)-methylidene]-2-oxo-2,3-dihydro-1H-indol-1-yl}methoxy)-4-oxobutanoic acid]

melting point: 107 to 110 °C
SMILES: CC(=O)OC(C)N1C(=O)/C(=C\c2[nH]c(C)cc2C)c2ccccc21 (stereo not shown) [Example 4, 1-{(3Z)-3-[(3,5-dimethyl-1H-pyrrol-2-yl)-methylidene]-2-oxo-2,3-dihydro-1H-indol-1-yl}ethyl acetate]

prodrug converted into drug (area under the curve of drug concentration vs time) [2]: 80% | half-life ([2]; dog): 7.3 min | half-life ([3]; pH 7.2): 6.2 min | half-life ([3]; pH 7.6): 6 min | hydrolysis to 3-(3,5-dimethyl-1H-pyrrol-2-ylmethylene)-1,3-dihydro-indol-2-one ([3]; physiological pH): rapidly hydrolyses | melting point: 129 to 132 °C
SMILES: Cc1cc(C)c(/C=C2\C(=O)N(CN3CCCC3)c3ccccc32)[nH]1 [Example 14, (3Z)-3-[(3,5-dimethyl-1H-pyrrol-2-yl)-methylidene]-1-(1-pyrrolidinylmethyl)-1,3-dihydro-2H-indol-2-one]
